This is an account of results in PMC8839081 (Molecules, 2022).

Data set [1] concerns C6 glioma cells. The data set can be described thus: GDNF release by C6 cells (sandwich ELISA of culture medium). Type of data set: cell-based, Rat. The note with it: 48 h; for GDNF in the medium relative to negative control (GDNF/DMSO): initial screening, confluent C6 cells, 10 μM; for EC50: Rattus norvegicus, C6 glioma, read-out: EC50 of GDNF release; for maximum GDNF release relative to vehicle: dose-response assay, maximum at 10 µM. Here is the method:
(§1) Cell culture: Rat C6 glioma cells were purchased from the American Type Culture Collection (CC-107) and maintained in Dulbecco’s Modified Eagle Medium (Life Technologies, Carlsbad, CA, USA; 10569) with 5% (v/v) fetal bovine serum (FBS, Atlanta Biologicals) and 100 U mL−1 of penicillin and streptomycin (Life Technologies). Cells were incubated at 37 °C with 5% CO2 humidified atmosphere. As a glioma cell line, C6 cells are highly susceptible to phenotypic drift, which can lead to varying expression levels of receptors and growth factors of interest. For such reason, all data presented here show a single representative experiment of many independent replicate trials.
GDNF release experiments: Into a 96-well plate were added C6 cells at a density of 25,300 cells/well in full growth medium (see above). Cells were allowed to adhere for 24 h at 37 °C. Cells were then serum-starved with media containing 0.5% FBS (low serum) for an additional 24 h. Low-serum media was refreshed prior to starting the experiment. Compounds were added in 50 μL of low-serum media to obtain a final volume of 200 μL/well. Treatments were performed in quadruplicate. […] Experiments were terminated by removing the conditioned media from each well and storing them at −80 °C until analyzed. GDNF was detected using a standard sandwich-style ELISA kit purchased from Promega Corporation (Madison, WI, USA) following the manufacturer’s instructions. Briefly, monoclonal anti-GDNF antibodies were captured onto a 96-well Nunc Immulon Immunoassay plate at a dilution of 1:1000 in carbonate coating buffer (25 mM sodium bicarbonate, 25 mM sodium carbonate, pH 8.2) overnight at 4 °C. After removing the monoclonal antibody, wells were blocked with 1× block and sample buffer for 1 h at RT (200 μL/well). A GDNF standard curve was created by serially diluting the recombinant human GDNF standard in 1× block and sample buffer to a concentration range of 0−1000 pg mL^−1. To each sample well was added 100 μL of conditioned media from above and the standard curve (in duplicate), and plates were incubated for 6 h with shaking at RT. After washing five times with TBST (150 mM sodium chloride, 10 mM Tris·HCl, 10 mM Tris base, 0.05% Tween 20, pH 7.6), wells were incubated with antihuman polyclonal GDNF antibodies (1:500) in 1× block and sample buffer overnight at 4 °C. Following an additional five washes with TBST, wells were incubated with antichicken IgY-HRP conjugate antibody (1:250) for 2 h with light shaking. After a final five washes, TMB One (100 μL/well) was added to each well and allowed to develop in the absence of light until there were clear differences in color between the highest and lowest concentrations of the standard curve. Wells were then quenched with 1 M HCl (100 μL/well), and the plates were read at an absorbance wavelength of 450 nm using a BioTek Synergy H1 plate reader.
(In general: ELISA stands for enzyme-linked immunosorbent assay.)

Data set [2] relates to C6 glioma cells. The data set can be described thus: WST-1 cell viability assay on C6 cells. Type of data set: cell-based, Rat. The note with it: for IC50: Rattus norvegicus, 48 h exposure, read-out: IC50 of cell proliferation / cell viability (WST-1). Here is the method:
as §1
WST-1 Cell Viability Assay: After compound treatment, conditioned media were removed and replaced with 75 μL of warm low-serum media. To each well was added 5 μL of WST-1 Cell Proliferation Reagent (Roche Applied Science, Penzberg, Germany), and the cells were incubated at 37 °C for no more than 1 h. Plates were briefly shaken prior to reading the absorbance at 450 nm. Treatments were compared to vehicle control.
For orientation: Tetrazolium dyes change colour on reduction, which living cells bring about.

Data set [3] deals with C6 glioma cells. Nature of the data set: LDH cytotoxicity (cell lysis) assay on C6 cells. Type of data set: cell-based. The note with it: 48 h, dose-response 0.03 to 60 µM. Here is the method:
as §1
LDH Cytotoxicity Assay: The lactate dehydrogenase cytotoxicity assay (Promega) was performed following the manufacturer’s instructions. Briefly, following compound treatment, conditioned media were removed, and untreated wells were washed twice with phosphate buffered saline. To untreated wells was added 40 μL of low-serum media supplemented with lysis buffer provided in the kit (1:10), protease inhibitor cocktail (1:100), and phosphatase inhibitor cocktail 2 (1:100). Cells were lysed at 37 °C for 1 h. […] The wells were quenched with 50 μL of stop solution, and the plates were read at an absorbance wavelength of 490 nm.

Data set [4] concerns bloodstream Trypanosoma brucei brucei. Nature of the data set: Bioluminescent viability assay on bloodstream T. b. brucei (LUC cell line). Type of data set: cell-based. The note with it: 24 h; for viability at 10 µM: read-out: Viability at 10 µM (%), bloodstream T. b. brucei, 10 µM, 24 h. How it is done:
The anti-trypanosomal activity of compounds was evaluated against the bioluminescent cell line of the bloodstream stage of Trypanosoma brucei brucei (called LUC cell line) as previously described. Briefly, to a 96-well culture plate containing 2.2 μL/well DMSO (negative control) or compounds dissolved in DMSO (1% final concentration), 220 μL/well of a suspension of 1 × 10^5 parasites/mL was added. The plates were incubated at 37 °C and 5% CO2 for 24 h. Next, each well was transferred to a 96-well black plate and 20 μL of a solution containing D-Luciferin (1.5 mg/mL in PBS glucose 1% w/v) and Triton X-100 (0.05% vol/vol) was added. Bioluminescence signal was measured in a LUMIstar OPTIMA Microplate luminometer using the following settings: 10 s shaking, 5 s/well acquisition, 0.2 s measurement delay, maximum gain, and 37 °C. For the bioluminescence assay, parasite viability was calculated according to the following formula: Viability (%) = (BLcpd—BLblank)/ (Blneg—BLblank) × 100, where BL refers to the mean of bioluminescence signal corresponding to the tested compound (cpd), the blank (blank, complete media containing 1% v/v DMSO), or the negative control (neg, parasites treated with 1% v/v DMSO). EC50 values were determined from concentration-response curves fitted to a four-parameter sigmoid equation using the GraphPad Prism software (version 6.0). All errors are expressed as one SD.

Data set [5] shares this test system. The note with it: read-out: EC50 (µM) against bloodstream T. b. brucei, same cell line and assay conditions, ref Benítez et al. 2020, cited from earlier work.
[6] abbreviates: read-out: EC50 (µM) against bloodstream T. b. brucei, mean SD (n = 3).
Setting [7] is: mean SD (n = 3), read-out: EC50 (µM) against bloodstream T. b. brucei.
[8] abbreviates: Trypanosoma brucei, mean SD (n = 3), read-out: EC50 (µM) against bloodstream T. b. brucei.
Setting [9] is: Trypanosoma brucei, read-out: EC50 (µM) against bloodstream T. b. brucei, 24 h, mean SD (n = 3).

Several values for one entry are separate records, joined by “and”; a condition that tells them apart may be missing. Identical values can stand only once. Like-named read-outs stand apart in the source and are kept apart here.

In general, viability refers to the share of living cells, or the viability signal relative to a control. What is called EC50 is the concentration that produces a half-maximal response.

`COC(=O)C1C2C=CC(C)(C3OC(C)(C)OC23)N1CCc1c[nH]c2ccccc12` [Compound 6, (1S, 3R, 4S, 5R, 6S)-Methyl N-(2-(3-indolyl)ethyl)-1-methyl-5,6-isopropylidendioxy-2-azabicycle[2.2.2]-7-octenen-3-carboxylate]: the “GDNF in the medium relative to negative control (GDNF/DMSO)” value in the data set on C6 glioma cells [1] is “up to 6 times”. Moreover, the “concentrations at which cell viability is impaired (WST-1)” value with C6 glioma cells [2] (48 h, dose-response 0.03 to 60 µM) is recorded as at least 10 µM. Further, the “concentrations with significant cell lysis / cell death (LDH)” value with C6 glioma cells [3] came out at 60 µM. Also, the viability at 10 µM in data set [4] (Trypanosoma brucei) is 24 ± 6%. The EC50 in data set [4] (setting [6]) is 7.9 µM and 7.96 µM.
On to `COC(=O)C1C2C=CC(C)(C3OC(C)(C)OC23)N1CCc1c[nH]c2ccccc12` [Compound 7, (1S, 3S, 4S, 5S, 6R)-Methyl N-(2-(3-indolyl)ethyl)-1-methyl-5,6-isopropylidendioxy-2-azabicycle[2.2.2]-7-octenen-3-carboxylate], for which the figures for the EC50 in data set [4] (setting [7]) and in data set [4] (setting [8]) were 31.5 ± 1.18 µM and 31.5 µM, respectively. For the same compound, the “Viability at 10 µM (%)” value in data set [4] (bloodstream T. b. brucei, 10 µM) was determined as 42 ± 14%.
`CC(C)C(C)(C)[Si](C)(C)OCC1NC2(C)C=CC1C1OC(C)(C)OC12` [Compound 10exo, (1S, 3R, 4S, 5R, 6S)-1-Methyl-3-(dimethyl(1,1,2-trimethylpropyl)silyloxy)methyl-5,6-isopropylidendioxy-2-azabicycle[2.2.2]-7-octene]: the viability at 10 µM in data set [4] (Trypanosoma brucei) was found to be 64 ± 2%.
As to `CC(C)C(C)(C)[Si](C)(C)OCC1C2C=CC(C)(C3OC(C)(C)OC23)N1CCc1c[nH]c2ccccc12` [Compound 11, (1S, 3R, 4S, 5S, 6R)-N-(2-(3-indolyl)ethyl)-1-methyl-3-(dimethyl(1,1,2-trimethylpropyl)silyloxy)methyl-5,6-isopropylidendioxy-2-azabicycle[2.2.2]-7-octene], the values for the EC50 (in the data set with C6 glioma cells [1] (dose-response 0.03 to 60 µM); in data set [4] (setting [7]); in data set [4] (setting [8])) were 3.46 µM, 7.95 ± 0.34 µM and 7.9 µM, respectively. In addition, the “maximum GDNF release relative to vehicle” value in the data set on C6 glioma cells [1] came out at 9 times. For the same compound, in the data set on C6 glioma cells [1], the “GDNF in the medium relative to negative control (GDNF/DMSO)” value is recorded as at most 15 times. In addition, the IC50 with C6 glioma cells [2] was 17.7 µM. Further, the viability at 10 µM in data set [4] (Trypanosoma brucei) stood at 37 ± 6%.
In the case of `CC1(C)OC2C3C=CC(C)(C2O1)N(CCc1c[nH]c2ccccc12)C3CO` [Compound 13, (1S, 3R, 4S, 5S, 6R)-N-(2-(3-indolyl)ethyl)-1-methyl-3-hydroxymethyl-5,6-isopropylidendioxy-2-azabicycle[2.2.2]-7-octene], the viability at 10 µM in data set [4] (Trypanosoma brucei) is 88%.
In the case of `CC1(C)OC2C3C=CC(C)(C2O1)N(CCc1c[nH]c2ccccc12)C3COCc1ccccc1` [Compound 14, (1S, 3R, 4S, 5S, 6R)-N-(2-(3-indolyl)ethyl)-1-methyl-3-benzyloximethyl-5,6-isopropylidendioxy-2-azabicycle[2.2.2]-7-octene], in the data set on C6 glioma cells [1], the EC50 stood at 20.1 µM, the “maximum GDNF release relative to vehicle” value is 23 times and the “GDNF in the medium relative to negative control (GDNF/DMSO)” value is listed as at most 7 times. Besides, the “lowest concentration with impairment in cell viability (WST-1)” value in the data set with C6 glioma cells [2] (48 h, dose-response) was at least 300 nM. The EC50 in data set [4] (setting [9]) was found to be 1.3 µM. In addition, the viability at 10 µM in data set [4] (Trypanosoma brucei) turned out to be 22 ± 12%. Further, in data set [4] (setting [6]), the EC50 was 1.27 ± 0.26 µM.
As to `CC1(C)OC2C3C=CC(C)(C2O1)N(CCc1c[nH]c2ccccc12)C3COC(=O)Cc1c[nH]c2ccccc12` [Compound 15, (1S, 3R, 4S, 5S, 6R)-N-(2-(3-indolyl)ethyl)-1-methyl-3-(2-(1H-3-indolyl)acetyloxy)methyl-5,6-isopropylidendioxy-2-azabicycle[2.2.2]-7-octene], the EC50 in the data set on C6 glioma cells [1] (dose-response 0.03 to 60 µM) came to 6.79 µM; in data set [4] (setting [7]), 3.47 ± 0.02 µM; in data set [4] (setting [8]), 3.5 µM. The “maximum GDNF release relative to vehicle” value in the data set on C6 glioma cells [1] came to 70 times. For the same compound, the “GDNF in the medium relative to negative control (GDNF/DMSO)” value in the data set on C6 glioma cells [1] is listed as “up to 60 times”. For the same compound, the IC50 in the data set on C6 glioma cells [2] was determined as 3.5 µM. For the same compound, in data set [4] (Trypanosoma brucei), the viability at 10 µM worked out at 0%.
Consider `CC1CS(=O)(=O)CCN1/N=C/c1ccc([N+](=O)[O-])o1` (stereo not drawn) [Nifurtimox], for which the EC50 in data set [5] is 5.3 µM; in data set [5] (listed as Nfx), 5.31 ± 0.44 µM.
Consider `CCC1CC2C=CC1N(CCc1c[nH]c3ccc(F)cc13)C2` (stereo not drawn) [XL-008, reference compound], for which, in the data set on C6 glioma cells [1], the “GDNF in the medium relative to negative control (GDNF/DMSO)” value is ~ 57 times. Also, the EC50 in data set [4] (setting [9]) amounted to 20 µM; in data set [4] (setting [6]), 19.5 ± 0.3 µM.
